These results are taken from patent US8569495B2, “Anthelmintic agents and their use” (Intervet International B.V., priority 2007, dated 2013).

Test [1] deals with Haemonchus contortus. The experiment in a line: Efficacy against Haemonchus contortus in cattle. It counts as in vivo. Conditions: 10 mg/kg, oral, single treatment 32 days after infection, necropsy 7 days after treatment. The protocol:
(§1) Anthelmintic effects of compounds of this invention were tested in vivo using Haemonchus contortus and Trichostrongylus colubriformis in cattle. The cattle were orally infected with approximately 10,000 third-stage larvae of Haemonchus contortus and approximately 30,000 third-stage larvae of Trichostrongylus colubriformis. Thirty-two days after infection, the cattle in the treatment group were treated once orally with the compound of Example 11 at a dose of 10 mg/kg bodyweight. Seven days after treatment, the cattle were necropsied, and the worm burden in the abomasum and the small intestine was determined. The efficacy was defined as the reduction of the mean worm count in the infected cattle of the treatment group in comparison to the infected cattle in the untreated negative control group.

Test [2] concerns Haemonchus contortus (L4), isolate resistant to benzimidazoles and ivermectin and anthelmintic-sensitive isolate. The experiment in a line: In vitro resistance-breaking activity against Haemonchus contortus L4, resistant versus sensitive isolate (MEC). Conditions: isolate resistant to benzimidazoles and ivermectin vs sensitive isolate. The protocol:
Anthelmintic resistance-breaking effects of compounds of this invention were tested in vitro using larval stage 4 (“L4”) of the parasitic nematode species Haemonchus contortus (Barber's pole worm in ruminants). One isolate of Haemonchus contortus with a resistance to benzimidazoles and ivermectin was tested in comparison to the anthelmintic-sensitive isolate of Haemonchus contortus. When conducting these experiments, various concentrations of the compounds were incubated in 96-well microtiter plates. Parasites were then distributed at 20 larvae per well. The anthelmintic effects were classified by microscopic examination. The microscopic examination included assessing mortality, damage, motility, progression of development, and neutral red uptake by the larvae in comparison to a DMSO-control and standard anthelmintics. The anthelmintic effects were defined by the minimum effective concentration (“MEC”).

Test [3] concerns Haemonchus contortus. Kind of test: Efficacy against Haemonchus contortus in sheep. Format: in vivo. Conditions: single treatment 35 days after infection, necropsy 7 days after treatment. The protocol: Anthelmintic effects of compounds of this invention were tested in vivo using Haemonchus contortus in sheep. The sheep were orally infected with approximately 5,000 third-stage larvae of Haemonchus contortus. Thirty-five days after infection, the sheep in the treatment groups were treated once orally or subcutaneously at a dose of 2, 5, 10, and/or 50 mg per kg bodyweight. Seven days after treatment, the sheep were necropsied, and the worm burden in the abomasum was determined. The efficacy was defined as the reduction of the mean worm count in the infected sheep of the treatment groups in comparison to the infected sheep in the untreated negative control group.

Test [4] deals with Haemonchus contortus. Kind of test: Efficacy against Haemonchus contortus in jirds. Format: in vivo, jirds (Meriones unguiculatus). Conditions: single treatment 10 days after infection, necropsy 3 days after treatment. The method, then:
Anthelmintic effects of compounds of this invention were tested in vivo using Haemonchus contuortus in jirds (Meriones unguiculatus). The jirds were orally infected with approximately 750-3,000 third-stage larvae of Haemonchus contortus. Ten days after infection, the jirds in the treatment groups were treated once orally or subcutaneously at a dose of 2, 10, and/or 50 mg per kg bodyweight. Three days after treatment, the jirds were necropsied, and the larvae burden in the stomach was determined. The efficacy was defined as the reduction of the mean larvae count in the jirds of the treatment groups in comparison to the infected jirds in the untreated negative control group. All the compounds of this invention tested using this protocol reduced the Haemonchus contortus count in both the oral and subcutaneous experiments.

In test [5] the test system is Trichostrongylus colubriformis. Kind of test: Efficacy against Trichostrongylus colubriformis in cattle. Format: in vivo. Conditions: 10 mg/kg, oral, single treatment 32 days after infection, necropsy 7 days after treatment. The protocol:
as §1

In test [6] the test system is Ascaridia galli (L3) and Oesophagostomum dentatum (L3 and L4). Kind of test: In vitro anthelmintic activity against larval stages of Ascaridia galli and Oesophagostomum dentatum (MEC). Conditions: Ascaridia galli, in vitro, A. galli L3, O. dentatum L3 and L4, 20 larvae per well, microscopic examination.
Setting [7] is: read-out: minimum effective concentration (MEC) against two or more of the tested nematodes.
Setting [8] is: read-out: minimum effective concentration (MEC) against one or more of the tested nematodes.

Where two headings read alike, the source gives them in different places.

As for `O=C(CO[C@H]1CC[C@H](Nc2ccc([N+](=O)[O-])c(C(F)(F)F)c2)CC1)N1CCN(c2ccc(C(F)(F)F)cc2)CC1` [Example 11, 2-[trans-4-(4-nitro-3-trifluoromethyl-phenylamino)-cyclohexyloxy]-1-[4-(4-trifluoromethyl-phenyl)-piperazin-1-yl]-ethanone], in test [1], the “Efficacy against H. contortus (reduction of the mean worm count)” value is 98%. In addition, in test [2], the “activity against the resistant isolate compared with the sensitive isolate of Haemonchus contortus” value was “same activity”. Moreover, the “% Reduction in H. contortus count” value in test [3] (2 mg/kg, oral) came to 0%; in test [3] (5 mg/kg, oral), 95%; in test [3] (10 mg/kg, oral), 100%; in test [4] (2 mg/kg, oral), 84%; in test [4] (2 mg/kg, subcutaneous), 69%; in test [4] (50 mg/kg, oral) it was 98%. In addition, the “% Reduction in H. contortus count” value in test [4] (50 mg/kg, subcutaneous) is listed as 99%. Moreover, in test [5], the “Efficacy against T. colubriformis (reduction of the mean worm count)” value was found to be 99%. For `CN(CC1CCN(c2ccc(C(F)(F)F)cc2)CC1)C(=O)[C@H]1CC[C@H](Nc2ccc([N+](=O)[O-])c(C(F)(F)F)c2)CC1` [Example 57, trans-N-methyl-4-(4-nitro-3-(trifluoromethyl)phenylamino)-N-((1-(4-(trifluoromethyl)phenyl)piperidin-4-yl)methyl)cyclohexanecarboxamide], in test [2], the “activity against the resistant isolate compared with the sensitive isolate of Haemonchus contortus” value was “same activity”. Besides, the “% Reduction in H. contortus count” value in test [3] (10 mg/kg, oral) was 83%; in test [3] (10 mg/kg, subcutaneous) it was 0%. In the case of `CN(c1ccc([N+](=O)[O-])c(C(F)(F)F)c1)[C@H]1CC[C@H](OCC(=O)N2CCN(c3ccc(C(F)(F)F)cc3)CC2)CC1` [Example 12, 2-{trans-4-[methyl(4-nitro-3-trifluoromethyl-phenyl)-amino]-cyclohexyloxy}-1-[4-(4-trifluoromethyl-phenyl)-piperazin-1-yl]-ethanone], the “% Reduction in H. contortus count” value in test [3] (10 mg/kg, oral) was 53%; in test [3] (10 mg/kg, subcutaneous) it was 0%. `O=C(COC1CCC(Nc2ccc([N+](=O)[O-])c(C(F)(F)F)c2)CC1)N1CCN(c2ccc(Cl)cc2)CC1` (centres unmarked) [Example 63]: the minimal effective concentration in test [6] (setting [7]) was under 1 µM. Regarding `N#Cc1ccc(N2CCN(C(=O)COC3CCC(Nc4ccc([N+](=O)[O-])c(C(F)(F)F)c4)CC3)CC2)cc1C(F)(F)F` (centres unmarked) [Example 64], in test [6] (setting [7]), the minimal effective concentration is under 1 µM.

Take `COc1cc(N[C@H]2CC[C@H](OCC(=O)N3CCN(c4ccc(C(F)(F)F)cc4)CC3)CC2)ccc1[N+](=O)[O-]` [Example 234]: the minimal effective concentration in test [6] (setting [8]) was under 1 µM. Same read-out and setting: the figure for `Cc1ccc(N2CCN(C(=O)COC3CCC(Nc4ccc([N+](=O)[O-])c(C(F)(F)F)c4)CC3)CC2)c(C)c1` (centres unmarked) [Example 67] is under 1 µM; for `CC(C)(C)c1ccc(N2CCN(C(=S)COC3CCC(Nc4ccc(OC(F)(F)F)c(C(F)(F)F)c4)CC3)CC2)cc1` (centres unmarked) [Example 206] it is under 1 µM. Regarding `N#Cc1ccc(NC2CCC(OCC(=O)N3CCN(c4ccc(Cl)cc4)CC3)CC2)cc1C(F)(F)F` (centres unmarked) [Example 88], the minimal effective concentration in test [6] (setting [8]) was under 1 µM. On to `O=C(COC1CCC(Nc2ccc([N+](=O)[O-])c(C(F)(F)F)c2)CC1)N1CCCN(c2ccc(C(F)(F)F)cc2)CC1` (centres unmarked) [Example 149], for which the minimal effective concentration in test [6] (setting [8]) and in test [6] (setting [7]) was under 1 µM throughout. On to `Cc1ccc(N2CCN(C(=S)COC3CCC(Nc4ccc([N+](=O)[O-])c(C(F)(F)F)c4)CC3)CC2)cc1` (centres unmarked) [Example 222], for which the minimal effective concentration in test [6] (setting [8]) is under 1 µM. As to `CC(C)(C)c1ccc(N2CCN(C(=S)COC3CCC(Nc4ccc(OC(F)(F)F)c(C(F)(F)F)c4)CC3)CC2)cc1` (centres unmarked) [Example 202], the minimal effective concentration in test [6] (setting [7]) is under 1 µM. Take `O=C(NCC1CCC(Nc2ccc([N+](=O)[O-])c(C(F)(F)F)c2)CC1)N1CCN(c2ccc(C(F)(F)F)cc2)CC1` (centres unmarked) [Example 145]: the minimal effective concentration in test [6] (setting [8]) and in test [6] (setting [7]) was under 1 µM throughout.

As to `CN(CC1CCC(Nc2ccc([N+](=O)[O-])c(C(F)(F)F)c2)CC1)C(=O)C1CCN(c2ccc(C(F)(F)F)cc2)CC1` (centres unmarked) [Example 111], the minimal effective concentration in test [6] (setting [8]) is under 1 µM.

With `O=[N+]([O-])c1ccc(NC2CCC(OCC(=S)N3CCN(c4ccc(Cl)c(C(F)(F)F)c4)CC3)CC2)cc1C(F)(F)F` (centres unmarked) [Example 221], the minimal effective concentration in test [6] (setting [8]) is under 1 µM. For `N#Cc1ccc(NC2CCC(OCC(=S)N3CCN(c4ccc(Cl)cc4)CC3)CC2)cc1C(F)(F)F` (centres unmarked) [Example 209], the minimal effective concentration in test [6] (setting [8]) was under 1 µM. Consider `Cc1ccc(N2CCC(CNC(=O)C3CCC(Nc4ccc([N+](=O)[O-])c(C(F)(F)F)c4)CC3)CC2)cc1` (centres unmarked) [Example 123], for which the minimal effective concentration in test [6] (setting [8]) was under 1 µM. With `O=C(COC1CCC(Nc2ccc([N+](=O)[O-])c(C(F)(F)F)c2)CC1)N1CCN(c2ccc(C(F)(F)F)cc2)C(=O)C1` (centres unmarked) [Example 158], the minimal effective concentration in test [6] (setting [7]) is under 1 µM.
